The target in one experiment is T1, human factor XIa (Homo sapiens, UniProt P03951).
T1 construct: purchased Kordia
In words: Measurement of FXIa inhibition (fluorogenic peptide substrate Boc-Glu(OBzl)-Ala-Arg-AMC). The experiment is classed as biochemical. The note with it: factor XIa from Kordia 0.45 nM; 15 min preincubation; 30 min at 22° C. As to the method:
The factor XIa inhibition of the substances according to the invention is determined using a biochemical test system which utilizes the reaction of a peptidic factor XIa substrate to determine the enzymatic activity of human factor XIa. Here, factor XIa cleaves from the peptic factor XIa substrate the C-terminal aminomethylcoumarin (AMC), the fluorescence of which is measured. The determinations are carried out in microtitre plates.
Test substances are dissolved in dimethyl sulphoxide and serially diluted in dimethyl sulphoxide (3000 μM to 0.0078 μM; resulting final concentrations in the test: 50 μM to 0.00013 μM). In each case 1 μl of the diluted substance solutions is placed into the wells of white microtitre plates from Greiner (384 wells). Subsequently, the following are added successively: 20 μl of assay buffer (50 mmol/l Tris buffer pH 7.4; 100 mmol/l sodium chloride; 5 mmol/l calcium chloride; 0.1% bovine serum albumin) and 20 μl of factor XIa from Kordia (0.45 nM in assay buffer). After 15 min of incubation, the enzyme reaction is started by addition of 20 μl of the factor XIa substrate Boc-Glu(OBzl)-Ala-Arg-AMC dissolved in assay buffer (10 μM in assay buffer) from Bachem, the mixture is incubated at room temperature (22° C.) for 30 min and fluorescence is then measured (excitation: 360 nm, emission: 460 nm). The measured emissions of the test batches with test substance are compared to those of control batches without test substance (only dimethyl sulphoxide instead of test substance in dimethyl sulphoxide), and IC50 values are calculated from the concentration/activity relationships.

The subject of another experiment is human and animal plasma. In words: Determination of anticoagulatory activity: activated partial thromboplastin time (aPTT) in plasma. The class given is biochemical. The following applies: C.K. Prest kit, 37° C., 3 minutes incubation, plasma species of Table B not stated. As for the experimental part: The anticoagulatory activity of the test substances is determined in vitro in human and animal plasma (for example mouse, rat, rabbit, pig and dog plasma). To this end, blood is drawn off in a mixing ratio of sodium citrate/blood of 1:9 using a 0.11 molar sodium citrate solution as receiver. Immediately after the blood has been drawn off, it is mixed thoroughly and centrifuged at about 4000 g for 15 minutes. The supernatant is pipetted off.
The activated partial thromboplastin time (aPTT) is determined in the presence of varying concentrations of test substance or the corresponding solvent using a commercial test kit (C.K. Prest from Diagnostica Stago). The test compounds are incubated with the plasma and the PTT reagent (cephalin, kaolin) at 37° C. for 3 minutes. Coagulation is then started by addition of a 25 mM aqueous calcium chloride solution, and the time when coagulation occurs is determined. The concentration of test substance which brings about a 1.5-fold extension of the aPTT is determined Activity data from this test are listed in Table B below: […]

Structures can show the parent of a compound that is named as a salt.

T1 sequence (P03951 388-625 limits assumed): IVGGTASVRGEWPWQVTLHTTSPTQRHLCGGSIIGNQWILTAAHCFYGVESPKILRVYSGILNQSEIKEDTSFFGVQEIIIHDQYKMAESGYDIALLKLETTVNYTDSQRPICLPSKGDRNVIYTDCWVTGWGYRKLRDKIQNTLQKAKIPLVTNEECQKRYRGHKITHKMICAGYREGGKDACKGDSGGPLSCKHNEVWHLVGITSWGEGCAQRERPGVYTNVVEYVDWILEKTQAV
T1 sequence (P03951 19-387 partner limits assumed): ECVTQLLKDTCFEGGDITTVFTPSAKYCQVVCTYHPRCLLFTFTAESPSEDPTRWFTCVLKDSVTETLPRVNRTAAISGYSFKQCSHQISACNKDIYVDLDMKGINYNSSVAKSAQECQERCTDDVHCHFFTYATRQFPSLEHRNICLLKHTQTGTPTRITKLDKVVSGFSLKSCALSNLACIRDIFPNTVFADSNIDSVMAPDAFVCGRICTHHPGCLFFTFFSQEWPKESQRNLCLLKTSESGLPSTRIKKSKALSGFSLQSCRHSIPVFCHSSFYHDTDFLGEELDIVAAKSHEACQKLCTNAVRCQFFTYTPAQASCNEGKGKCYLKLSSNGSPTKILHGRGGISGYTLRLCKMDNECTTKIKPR

By IC50 is commonly meant the concentration that gives 50% inhibition. Lower therefore signals inhibition by little substance. For `Cc1ccc(S(=O)(=O)N(C)C)cc1-c1ccc(C[C@H](NC(=O)[C@H]2CC[C@H](CN)CC2)C(=O)Nc2ccc(-c3nnn[nH]3)cc2)cc1` [Example 1, trans-4-(Aminomethyl)-N-[(2S)-3-[5′-(dimethylsulphamoyl)-2′-methylbiphenyl-4-yl]-1-oxo-1-{[4-(1H-tetrazol-5-yl)phenyl]amino}propan-2-yl]cyclohexanecarboxamide hydrochloride], at human factor XIa, it took 0.5 nM to reach half-maximal inhibition (IC50). Moreover, in the experiment on human and animal plasma, the “aPTT (concentration of test substance which brings about a 1.5-fold extension of the aPTT)” value was 0.16 µmol/L.
On human factor XIa, `Cc1ccc(S(=O)(=O)N2CCOCC2)cc1-c1ccc(C[C@H](NC(=O)[C@H]2CC[C@H](CN)CC2)C(=O)Nc2ccc(-c3nnn[nH]3)cc2)cc1` [Example 2, trans-4-(Aminomethyl)-N-[(2S)-3-[2′-methyl-5′-(morpholin-4-ylsulphonyl)biphenyl-4-yl]-1-oxo-1-{[4-(1H-tetrazol-5-yl)phenyl]amino}propan-2-yl]cyclohexanecarboxamide hydrochloride] had an IC50 of 0.1 nM. Further, the “aPTT (concentration of test substance which brings about a 1.5-fold extension of the aPTT)” value in the experiment with human and animal plasma is 0.22 µmol/L.
The matching figures for `Cc1ccc(S(=O)(=O)N(C)C)cc1-c1ccc(C[C@H](NC(=O)[C@H]2CC[C@H](CN)CC2)C(=O)Nc2ccc(-c3nnc(Cl)[nH]3)cc2)cc1` [Example 3, trans-4-(Aminomethyl)-N-{(2S)-1-{[4-(5-chloro-4H-1,2,4-triazol-3-yl)phenyl]amino}-3-[5′-(dimethylsulphamoyl)-2′-methylbiphenyl-4-yl]-1-oxopropan-2-yl}cyclohexanecarboxamide hydrochloride]: 2.8 nM and 0.19 µmol/L.
In the same order, the values of `NC[C@H]1CC[C@H](C(=O)N[C@@H](Cc2ccc(-c3cccc(S(N)(=O)=O)c3)cc2)C(=O)Nc2ccc(-c3nnn[nH]3)cc2)CC1` [Example 4, trans-4-(Aminomethyl)-N-[(2S)-1-oxo-3-(3′-sulphamoylbiphenyl-4-yl)-1-{[4-(1H-tetrazol-5-yl)phenyl]amino}propan-2-yl]cyclohexanecarboxamide hydrochloride] are 3.1 nM and 0.16 µmol/L.
In the same order, the values of `CN1CCN(C(=O)c2cccc(-c3ccc(C[C@H](NC(=O)[C@H]4CC[C@H](CN)CC4)C(=O)Nc4ccc(-c5nnn[nH]5)cc4)cc3)c2)CC1` [Example 5, trans-4-(Aminomethyl)-N-[(2S)-3-{3′-[(4-methylpiperazin-1-yl)carbonyl]biphenyl-4-yl}-1-oxo-1-{[4-(1H-tetrazol-5-yl)phenyl]amino}propan-2-yl]cyclohexanecarboxamide hydrochloride] are 11 nM and 0.37 µmol/L.
In the case of `NC[C@H]1CC[C@H](C(=O)N[C@@H](Cc2ccc(-c3cccc(OCCN4CCOCC4)c3)cc2)C(=O)Nc2ccc(-c3nn[nH]n3)cc2)CC1` [Example 6, trans-4-(Aminomethyl)-N-[(2S)-3-{3′-[2-(morpholin-4-yl)ethoxy]biphenyl-4-yl}-1-oxo-1-{[4-(2H-tetrazol-5-yl)phenyl]amino}propan-2-yl]cyclohexanecarboxamide hydrochloride], 14 nM corresponded to half-maximal inhibition against human factor XIa (IC50). Moreover, the “aPTT (concentration of test substance which brings about a 1.5-fold extension of the aPTT)” value with human and animal plasma is 0.54 µmol/L.
The matching figures for `Cc1ccc(S(=O)(=O)N2CCCC2)cc1-c1ccc(C[C@H](NC(=O)[C@H]2CC[C@H](CN)CC2)C(=O)Nc2ccc3[nH]c(=O)[nH]c3c2)cc1` [Example 7, trans-4-(Aminomethyl)-N-{(2S)-3-[2′-methyl-5′-(pyrrolidin-1-ylsulphonyl)biphenyl-4-yl]-1-oxo-1-[(2-oxo-2,3-dihydro-1H-benzimidazol-5-yl)amino]propan-2-yl}cyclohexanecarboxamide hydrochloride]: 11 nM and 0.39 µmol/L.
With `CCOC(=O)c1cccc(-c2ccc(C[C@H](NC(=O)[C@H]3CC[C@H](CN)CC3)C(=O)Nc3ccc(-c4nn[nH]n4)cc3)cc2)c1F` [Example 8, Ethyl 4′-[(2S)-2-({[trans-4-(aminomethyl)cyclohexyl]carbonyl}amino)-3-oxo-3-{[4-(2H-tetrazol-5-yl)phenyl]amino}propyl]-2-fluorobiphenyl-3-carboxylate hydrochloride], the midpoint of inhibition at human factor XIa, the IC50, lay at 6.9 nM. In the experiment on human and animal plasma, the “aPTT (concentration of test substance which brings about a 1.5-fold extension of the aPTT)” value is 0.51 µmol/L.
In the same order, the values of `Cc1ccc(C(=O)NC2CCNCC2)cc1-c1ccc(C[C@H](NC(=O)[C@H]2CC[C@H](CN)CC2)C(=O)Nc2ccc(-c3nn[nH]n3)cc2)cc1` [Example 9, hydrochloride] are 7.4 nM and 0.08 µmol/L.
In the same order, the values of `CCN(CC)CCNC(=O)c1ccc(C)c(-c2ccc(C[C@H](NC(=O)[C@H]3CC[C@H](CN)CC3)C(=O)Nc3ccc(-c4nn[nH]n4)cc3)cc2)c1` [Example 10, 4′-[(2S)-2-({[trans-4-(Aminomethyl)cyclohexyl]carbonyl}amino)-3-oxo-3-{[4-(2H-tetrazol-5-yl)phenyl]amino}propyl]-N-[2-(diethylamino)ethyl]-6-methylbiphenyl-3-carboxamide hydrochloride] are 8 nM and 0.38 µmol/L.
In the same order, the values of `Cc1ccc(C(=O)N[C@@H]2CCNC2)cc1-c1ccc(C[C@H](NC(=O)[C@H]2CC[C@H](CN)CC2)C(=O)Nc2ccc(-c3nn[nH]n3)cc2)cc1` [Example 11, 4′-[(2S)-2-({[trans-4-(Aminomethyl)cyclohexyl]carbonyl}amino)-3-oxo-3-{[4-(2H-tetrazol-5-yl)phenyl]amino}propyl]-6-methyl-N-[(3R)-pyrrolidin-3-yl]biphenyl-3-carboxamide hydrochloride] are 6.9 nM and 0.26 µmol/L.
In turn, `Cc1ccc(C(=O)N2CCNCC2)cc1-c1ccc(C[C@H](NC(=O)[C@H]2CC[C@H](CN)CC2)C(=O)Nc2ccc(-c3nn[nH]n3)cc2)cc1` [Example 12, trans-4-(Aminomethyl)-N-[(2S)-3-[2′-methyl-5′-(piperazin-1-ylcarbonyl)biphenyl-4-yl]-1-oxo-1-{[4-(2H-tetrazol-5-yl)phenyl]amino}propan-2-yl]cyclohexanecarboxamide hydrochloride] returned an IC50 against human factor XIa of 8.1 nM. Further, the “aPTT (concentration of test substance which brings about a 1.5-fold extension of the aPTT)” value in the experiment with human and animal plasma stood at 0.49 µmol/L.
Compound `Cc1cc(C)c(-c2ccc(C[C@H](NC(=O)[C@H]3CC[C@H](CN)CC3)C(=O)Nc3ccc(-c4nn[nH]n4)cc3)cc2)cc1C(=O)N(C)C` [Example 39, 4′-[(2S)-2-({[trans-4-(Aminomethyl)cyclohexyl]carbonyl}amino)-3-oxo-3-{[4-(2H-tetrazol-5-yl)phenyl]amino}propyl]-N,N,4,6-tetramethylbiphenyl-3-carboxamide hydrochloride] came in with a half-inhibitory concentration (IC50) at human factor XIa of 3.3 nM.
As for `CNC(=O)c1ccc(C)c(-c2ccc(C[C@H](NC(=O)[C@H]3CC[C@H](CN)CC3)C(=O)Nc3ccc(-c4nnc(C(F)(F)C(F)(F)C(=O)O)[nH]4)cc3)cc2)c1` [Example 41, 3-{5-[4-({(2S)-2-({[trans-4-(Aminomethyl)cyclohexyl]carbonyl}amino)-3-[2′-methyl-5′-(methylcarbamoyl)biphenyl-4-yl]propanoyl}amino)phenyl]-4H-1,2,4-triazol-3-yl}-2,2,3,3-tetrafluoropropanoic acid hydrochloride], half-maximal inhibition on human factor XIa (IC50) required 2.8 nM.

The values above are taken from patent US20160237067A1, “SUBSTITUTED PHENYLALANINE DERIVATIVES” (BAYER PHARMA AKTIENGESELLSCHAFT, priority 2013, published 2016).
